Tested on: E. coli
Assay: Disinfection of E. coli-infected surfaces, SYTO9/PI confocal fluorescence microscopy
Assay type: cell-based
Conditions: on stainless steel, plastic and spinach leaf, 20 min treatment
Method: The efficacy of AquaROS as a disinfectant for reducing pathogen concentration was tested with three different surfaces infected with E. coli: stainless steel, plastic, and spinach leaf (cut from a single leaf as 1-cm×1-cm squares and washed 3× with distilled water and dried ambiently prior to E. coli deposition). For these experiments, E. coli was cultured in LB broth at 37° C. for approximately 16 hours. Using sterilized LB broth, the E. coli suspension was diluted to a concentration of 4.5×10^8 cells/mL, using a UV-vis spectrophotometer to monitor absorption at 600 nm. Infection of each surface was achieved by deposition of 10 μL of 4.5×10^8 cell/mL E. coli suspension followed by drying in a desiccator for approximately 10 min. AquaROS was applied by spraying pure water at 120 psi and at a height of 1.5 cm from the E. coli surface with a 10 μl/min flow rate for 20 min (FIG. 6). Control samples were treated by depositing 100 μL of 3% H2O2 and allowing it to react for 20 min at room temperature. Following treatment with AquaROS spray and 3% H2O2, 1 mL PBS 1× (pH 7.4) was added to the glass vial containing the treated material, swirled, then pipetted into a 1-mL Eppendorf tube. […]
FIG. 7 is a plot of E. coli death by AquaROS spray on the different surfaces compared to 3% H2O2. Cell death data were acquired by confocal fluorescence microscopy of each sample placed on a glass slide. […]

OO [3% H2O2, hydrogen peroxide]
E. coli death: approximately 60%
